Earlier results on one compound are cited in patent publication US20210169075A1, “ANTIBIOFILM FORMULATIONS AND METHODS FOR MICROBIAL DECONTAMINATION” (priority 2019, published 2021).

In brackets after ≈: the same amount, converted by molar mass.

The conditions of the series: aqueous.

For the compound `C=CC(=C)CCC=C(C)C` [Myrcene, myrcene], the solubility concentration is 4.09 µg/mL (≈ 30 µM).
